Reference: ChEMBL document CHEMBL3046917, “Antimicrobial evaluation of 4-methylsulfanyl benzylidene/3-hydroxy benzylidene hydrazides and QSAR studies” (2012)
Converted amounts (≈) assume the structure as drawn.

Columns and labels:
Assay type in all cases: functional
Aspergillus niger [1] = test: Ratio of MFC to MIC for Aspergillus niger MTCC 8189
Candida albicans [2] = test: Ratio of MFC to MIC for Candida albicans MTCC 227
Escherichia coli [3] = test: Ratio of MBC to MIC for Escherichia coli MTCC 1652
Bacillus subtilis [4] = test: Ratio of MBC to MIC for Bacillus subtilis MTCC 2063
Staphylococcus aureus [5] = test: Ratio of MBC to MIC for Staphylococcus aureus MTCC 2901
Aspergillus niger [6] = test: Fungicidal activity against Aspergillus niger MTCC 8189
Candida albicans [7] = test: Fungicidal activity against Candida albicans MTCC 227
Escherichia coli [8] = test: Bactericidal activity against Escherichia coli MTCC 1652
Bacillus subtilis [9] = test: Bactericidal activity against Bacillus subtilis MTCC 2063
Staphylococcus aureus [10] = test: Bactericidal activity against Staphylococcus aureus MTCC 2901
Candida albicans [11] = test: Fungistatic activity against Candida albicans MTCC 227 after 48 hr by tube dilution method
Aspergillus niger [12] = test: Fungistatic activity against Aspergillus niger MTCC 8189 after 7 days by tube dilution method
Escherichia coli [13] = test: Bacteriostatic activity against Escherichia coli MTCC 1652 after 24 hr by tube dilution method
Staphylococcus aureus [14] = test: Bacteriostatic activity against Staphylococcus aureus MTCC 2901 after 24 hr by tube dilution method
Bacillus subtilis [15] = test: Bacteriostatic activity against Bacillus subtilis MTCC 2063 after 24 hr by tube dilution method

| Compound | Ratio (Aspergillus niger [1]) | Ratio (Candida albicans [2]) | Ratio (Escherichia coli [3]) | Ratio (Bacillus subtilis [4]) | Ratio (Staphylococcus aureus [5]) | MFC (Aspergillus niger [6]) [µM] | MFC (Candida albicans [7]) [µM] | MBC (Escherichia coli [8]) [µM] | MBC (Bacillus subtilis [9]) [µM] | MBC (Staphylococcus aureus [10]) [µM] | -logMIC (Candida albicans [11]) | -logMIC (Aspergillus niger [12]) | -logMIC (Escherichia coli [13]) | -logMIC (Staphylococcus aureus [14]) | -logMIC (Bacillus subtilis [15]) |
| --- | --- | --- | --- | --- | --- | --- | --- | --- | --- | --- | --- | --- | --- | --- | --- |
| CCCCCCCCCCCC(=O)N/N=C/c1cccc(O)c1 | 3 | 3 | 3 | 3 | 3 | 78 (≈ 24.8 µg/mL) | 157 (≈ 50 µg/mL) | 157 (≈ 50 µg/mL) | 157 (≈ 50 µg/mL) | > 157 | 1.1 | 1.71 | 0.98 | 0.98 | 0.8 |
| C/C=C/C=C/C(=O)N/N=C/c1ccc(SC)cc1 | 3 | 3 | 3 | 3 | 3 | 96 (≈ 25 µg/mL) | > 192 | > 192 | > 192 | 192 (≈ 50 µg/mL) | 1.32 | 1.32 | 1.32 | 1.02 | 0.72 |
| CSc1ccc(/C=N/NC(=O)c2ccc(C)cc2)cc1 | 3 | 3 | 3 | 3 | 3 | 88 (≈ 25 µg/mL) | 88 (≈ 25 µg/mL) | 88 (≈ 25 µg/mL) | 44 (≈ 12.5 µg/mL) | > 176 | 1.96 | 1.66 | 1.96 | 1.66 | 1.96 |
| CCCCCCCCCCCC(=O)N/N=C/c1ccc(SC)cc1 | 3 | 3 | 3 | 3 | 3 | 71 (≈ 24.7 µg/mL) | > 142 | > 142 | > 142 | > 142 | 1.66 | 1.25 | 1.3 | 1.3 | 1.45 |
| C/C=C/C=C/C(=O)N/N=C/c1cccc(O)c1 | 3 | 3 | 3 | 3 | 3 | 217 (≈ 50 µg/mL) | 217 (≈ 50 µg/mL) | > 217 | 217 (≈ 50 µg/mL) | > 217 | 1.41 | 1.27 | 1.27 | 0.96 | 1.27 |
| COc1ccc(C(=O)N/N=C/c2cccc(O)c2)cc1OC | 3 | 3 | 3 | 3 | 3 | 41 (≈ 12.3 µg/mL) | 83 (≈ 24.9 µg/mL) | > 166 | > 166 | 83 (≈ 24.9 µg/mL) | 1.98 | 1.98 | 1.38 | 1.98 | 1.38 |
| CCCCCCCCCCCCCCCC(=O)N/N=C/c1ccc(SC)cc1 | 3 | 3 | 3 | 3 | 3 | > 122 | > 122 | 61 (≈ 24.7 µg/mL) | 61 (≈ 24.7 µg/mL) | > 122 | 0.61 | 0.61 | 1.81 | 1.21 | 2.11 |
| CCCCCCCCCCCCCCCC(=O)N/N=C/c1cccc(O)c1 | 3 | 3 | 3 | 3 | 3 | > 133 | > 133 | > 133 | 133 (≈ 49.8 µg/mL) | > 133 | 0.57 | 1.2 | 1.13 | 0.99 | 1.78 |
| CCCCCCCCCCCCCC(=O)N/N=C/c1cccc(O)c1 | 3 | 3 | 3 | 3 | 3 | > 144 | > 144 | > 144 | 144 (≈ 49.9 µg/mL) | > 144 | 0.54 | 1.2 | 0.94 | 0.94 | 2.04 |
| O=C(N/N=C/c1cccc(O)c1)c1cc([N+](=O)[O-])cc([N+](=O)[O-])c1 | 3 | 3 | 3 | 3 | 3 | 37 (≈ 12.2 µg/mL) | > 151 | > 151 | > 151 | > 151 | 1.42 | 2.02 | 1.42 | 1.12 | 1.42 |
| O=C(/C=C/c1ccccc1)N/N=C/c1cccc(O)c1 | 3 | 3 | 3 | 3 | 3 | 93 (≈ 24.8 µg/mL) | 93 (≈ 24.8 µg/mL) | 46 (≈ 12.2 µg/mL) | 46 (≈ 12.2 µg/mL) | 46 (≈ 12.2 µg/mL) | 1.93 | 1.93 | 1.32 | 1.7 | 1.93 |
| CCCCCCCCCCCCCCCCCC(=O)N/N=C/c1cccc(O)c1 | 3 | 3 | 3 | 3 | 3 | > 124 | > 124 | > 124 | 124 (≈ 49.9 µg/mL) | > 124 | 0.6 | 1.51 | 1.3 | 1.1 | 1.51 |
| CSc1ccc(/C=N/NC(=O)c2cc([N+](=O)[O-])cc([N+](=O)[O-])c2)cc1 | 3 | 3 | 3 | 3 | 3 | 69 (≈ 24.9 µg/mL) | > 138 | 8 (≈ 2.88 µg/mL) | 69 (≈ 24.9 µg/mL) | 69 (≈ 24.9 µg/mL) | 0.86 | 2.06 | 2.06 | 1.46 | 2.06 |
| O=C(O)c1cn(C2CC2)c2cc(N3CCNCC3)c(F)cc2c1=O [CIPROFLOXACIN] |  |  |  |  |  |  |  | 19 (≈ 6.3 µg/mL) | 19 (≈ 6.3 µg/mL) | 19 (≈ 6.3 µg/mL) |  |  | 2.61 | 2.61 | 2.61 |
| OC(Cn1cncn1)(Cn1cncn1)c1ccc(F)cc1F [FLUCONAZOLE] |  |  |  |  |  | 40 (≈ 12.3 µg/mL) | 40 (≈ 12.3 µg/mL) |  |  |  | 2.64 | 2.64 |  |  |  |
| CCCCCCCCCCCCCCCCCC(=O)N/N=C/c1ccc(SC)cc1 | 3 | 3 | 3 | 3 | 3 | 115 (≈ 49.8 µg/mL) | > 115 | 28 (≈ 12.1 µg/mL) | > 115 | > 115 | 0.7 | 0.7 | 1.65 | 0.94 | 0.64 |
| CSc1ccc(/C=N/NC(=O)/C=C/c2ccccc2)cc1 | 3 | 3 | 3 | 3 | 3 | > 168 | 84 (≈ 24.9 µg/mL) | 168 (≈ 49.8 µg/mL) | > 168 | > 168 | 1.37 | 1.37 | 1.68 | 1.68 | 1.68 |
| COc1ccc(C(=O)N/N=C/c2ccc(SC)cc2)cc1OC | 3 | 3 | 3 | 3 | 3 | > 151 | > 151 | > 151 | > 151 | 37 (≈ 12.2 µg/mL) | 1.42 | 1.59 | 1.7 | 1.72 | 1.42 |
| CCCCCCCCCCCCCC(=O)N/N=C/c1ccc(SC)cc1 | 3 | 3 | 3 | 3 | 3 | > 132 | > 132 | > 132 | 33 (≈ 12.4 µg/mL) | > 132 | 0.58 | 1.7 | 1.48 | 0.58 | 2.08 |
| CSc1ccc(/C=N/NC(=O)c2cccc(C)c2)cc1 | 3 | 3 | 3 | 3 | 3 | 88 (≈ 25 µg/mL) | 176 (≈ 50.1 µg/mL) | 176 (≈ 50.1 µg/mL) | > 176 | > 176 | 1.67 | 1.7 | 1.66 | 1.55 | 1.06 |
